Results reported in patent US20230219904A1 (SYNGENTA CROP PROTECTION AG, priority 2020, published 2023).

Key:
Type in all cases: in vivo
Conditions in all cases: evaluated after 13 days
[1] = system: Abutilon theophrasti (ABUTH); assay: Pre-emergence herbicidal glasshouse test (Table B1)
Procedure, shortened: (§1)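 Five-point damage scores (1=0-19% through 5=80-100%) were recorded 13 days after spraying. Pre-emergence treatment came one day after sowing, post-emergence after 8 days; rate 500 g/h unless otherwise indicated.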

[2] = system: Amaranthus retoflexus (AMARE); assay: as above
Procedure, shortened: as §1

[3] = system: Echinochloa crus-galh (ECHCG); assay: as above
Procedure, shortened: as §1

[4] = system: Ipomoea hederacea (IPOHE); assay: as above
Procedure, shortened: as §1

Setaria faberi (SETFA) [5] = assay: as above
Procedure, shortened: as §1

[6] = system: Abutilon theophrasti (ABUTH); assay: Post-emergence herbicidal glasshouse test (Table B1)
Procedure, shortened: as §1

[7] = system: Amaranthus retoflexus (AMARE); assay: as above
Procedure, shortened: as §1

[8] = system: Echinochloa crus-galh (ECHCG); assay: as above
Procedure, shortened: as §1

[9] = system: Ipomoea hederacea (IPOHE); assay: as above
Procedure, shortened: as §1

Setaria faberi (SETFA) [10] = assay: as above
Procedure, shortened: as §1

SMILES | PRE Application ABUTH, percentage damage on five-point scale ([1]; applied at 500 g/h) | PRE Application AMARE, percentage damage on five-point scale ([2]; applied at 500 g/h) | PRE Application ECHCG, percentage damage on five-point scale ([3]; applied at 500 g/h) | PRE Application IPOHE, percentage damage on five-point scale ([4]; applied) | PRE Application SETFA, percentage damage on five-point scale (Setaria faberi (SETFA) [5]; applied at 500 g/h) | POST Application ABUTH, percentage damage on five-point scale ([6]; applied at 500 g/h) | POST Application AMARE, percentage damage on five-point scale ([7]; applied at 500 g/h) | POST Application ECHCG, percentage damage on five-point scale ([8]; applied at 500 g/h) | POST Application IPOHE, percentage damage on five-point scale ([9]; applied at 500 g/h) | POST Application SETFA, percentage damage on five-point scale (Setaria faberi (SETFA) [10]; applied at 500 g/h) | PRE Application ABUTH, percentage damage on five-point scale ([1]; applied at 125 g/ha) | PRE Application AMARE, percentage damage on five-point scale ([2]; applied at 125 g/ha) | PRE Application ECHCG, percentage damage on five-point scale ([3]; applied at 125 g/ha) | PRE Application IPOHE, percentage damage on five-point scale ([4]; applied at 125 g/ha) | PRE Application SETFA, percentage damage on five-point scale (Setaria faberi (SETFA) [5]; applied at 125 g/ha) | POST Application ABUTH, percentage damage on five-point scale ([6]; applied at 125 g/ha) | POST Application AMARE, percentage damage on five-point scale ([7]; applied at 125 g/ha) | POST Application ECHCG, percentage damage on five-point scale ([8]; applied at 125 g/ha) | POST Application IPOHE, percentage damage on five-point scale ([9]; applied at 125 g/ha) | POST Application SETFA, percentage damage on five-point scale (Setaria faberi (SETFA) [10]; applied at 125 g/ha)
Cc1nnc(NC(=O)c2ccc(OC(F)(F)F)c(N3CCCCC3=O)c2Cl)o1 [Compound 2.004] | 4 (4=60-79%) | 5 (5=80-100%) | 5 (5=80-100%) | 1 (1=0-19%) | 5 (5=80-100%) | 5 (5=80-100%) | 5 (5=80-100%) | 5 (5=80-100%) | 5 (5=80-100%) | 5 (5=80-100%) |  |  |  |  |  |  |  |  |  | 
Cn1nnnc1NC(=O)c1ccc(OC(F)(F)F)c(NC(=O)C2CC2)c1Cl [Compound 1.006, 2-chloro-3-(cyclopropanecarbonylamino)-N-(1-methyltetrazol-5-yl)-4-(trifluoromethoxy)benzamide] | 5 (5=80-100%) | 5 (5=80-100%) | 5 (5=80-100%) | 2 (2=20-39%) | 5 (5=80-100%) | 5 (5=80-100%) | 5 (5=80-100%) | 5 (5=80-100%) | 5 (5=80-100%) | 5 (5=80-100%) |  |  |  |  |  |  |  |  |  | 
Cn1nnnc1NC(=O)c1ccc(OC(F)F)c(N2CCCCC2=O)c1Cl [Compound 1.023] |  |  |  |  |  |  |  |  |  |  | 5 (5=80-100%) | 5 (5=80-100%) | 5 (5=80-100%) | 2 (2=20-39%) | 5 (5=80-100%) | 5 (5=80-100%) | 5 (5=80-100%) | 5 (5=80-100%) | 5 (5=80-100%) | 5 (5=80-100%)
CCC(=O)Nc1c(OC(F)(F)C(F)F)ccc(C(=O)Nc2nnnn2CC)c1Cl [Compound 1.103] | 4 (4=60-79%) | 5 (5=80-100%) | 3 (3=40-59%) | 1 (1=0-19%) | 1 (1=0-19%) | 5 (5=80-100%) | 5 (5=80-100%) | 5 (5=80-100%) | 5 (5=80-100%) | 5 (5=80-100%) |  |  |  |  |  |  |  |  |  | 
CCn1nnnc1NC(=O)c1ccc(OC(F)(F)F)c(NC(=O)C(C)C)c1Cl [Compound 1.118] |  |  |  |  |  |  |  |  |  |  | 4 (4=60-79%) | 4 (4=60-79%) | 5 (5=80-100%) | 2 (2=20-39%) | 4 (4=60-79%) | 4 (4=60-79%) | 4 (4=60-79%) | 4 (4=60-79%) | 4 (4=60-79%) | 4 (4=60-79%)
CCCC(=O)Nc1c(OC(F)(F)F)ccc(C(=O)Nc2nnnn2C)c1Cl [Compound 1.121] | 4 (4=60-79%) | 5 (5=80-100%) | 5 (5=80-100%) | 2 (2=20-39%) | 1 (1=0-19%) | 5 (5=80-100%) | 5 (5=80-100%) | 5 (5=80-100%) | 5 (5=80-100%) | 5 (5=80-100%) |  |  |  |  |  |  |  |  |  | 
CCOC(C)C(=O)Nc1c(OC(F)(F)F)ccc(C(=O)Nc2nnnn2C)c1Cl (centres unmarked) [Compound 1.065] |  |  |  |  |  |  |  |  |  |  | 5 (5=80-100%) | 5 (5=80-100%) | 5 (5=80-100%) | 5 (5=80-100%) | 5 (5=80-100%) | 5 (5=80-100%) | 5 (5=80-100%) | 5 (5=80-100%) | 5 (5=80-100%) | 5 (5=80-100%)
CCCC(=O)Nc1c(OC(F)(F)F)ccc(C(=O)Nc2nnnn2CC)c1Cl [Compound 1.114] | 5 (5=80-100%) | 5 (5=80-100%) | 5 (5=80-100%) | 3 (3=40-59%) | 2 (2=20-39%) | 5 (5=80-100%) | 5 (5=80-100%) | 5 (5=80-100%) | 5 (5=80-100%) | 5 (5=80-100%) |  |  |  |  |  |  |  |  |  | 
